The values that follow are results of earlier work, collected in patent publication US20130102635A1, “Methods for Treating Disorders Associated with Hyperlipidemia in a Mammal” (priority 2005, published 2013).

Entries after “also recorded” stand apart in the source; their conditions may differ. Read-outs that look alike come from different tables or passages of the source.

For series [1] the following is noted: clinical studies, 80 mg/day or greater.
The conditions of series [2]: animal model for homozygous FH, for example at 25 mg/day.

In the case of `Cc1cc(C)c2c3ccccc3n(Cc3ccc([C@@H](C(=O)N[C@H](CO)c4ccccc4)C4CCCC4)cc3)c2n1` [implitapide, (2S)-2-cyclopentyl-2-[4-[(2,4-dimethyl-9H-pyrido[2,3-b]indol-9-yl)methyl]phenyl]-N-[(1S)-2-hydroxy-1-phenylethyl]ethanamide], the adverse events entry is “gastrointestinal disturbances, abnormalities in liver function, and hepatic steatosis” (clinical studies, implitapide 80 mg/day or greater); “gastrointestinal disorders, abnormalities in liver function and/or hepatic steatosis” (implitapide 80 mg/day and 160 mg/day). In series [1], the therapeutic effectiveness entry is reported as “therapeutically effective”.

With `O=C(NC1CCN(CCCCC2(C(=O)NCC(F)(F)F)c3ccccc3-c3ccccc32)CC1)c1ccccc1-c1ccc(C(F)(F)F)cc1` [BMS-201038, N-(2,2,2-Trifluorethyl)-9-[4-[4-[[[4′-(trifluoromethyl)[1,1′biphenyl]-2-Yl]carbonyl]amino]-1-piperidinyl]butyl] 9H-fluorene-9-carboxamide], in series [2], the “reduction of plasma cholesterol levels” value is “effectively reduced plasma cholesterol levels in a dose dependent manner”. Also, the adverse events result (patients, 25 mg/day BMS-201038) is “gastrointestinal disturbances, abnormalities in liver function, and hepatic steatosis; also recorded: gastrointestinal disorders, abnormalities in liver function and/or hepatic steatosis”.
